Measurements from ChEMBL document CHEMBL4308841, “Synthesis, in vitro antiproliferative activity, and kinase inhibitory effects of pyrazole-containing diarylureas and diarylamides” (Eur J Med Chem, 2018).

Tests used:
A498 [1] = experiment: Growth inhibition of human A498 cells assessed as cell growth at 0.1 uM incubated for 48 hrs by sulforhodamine B assay relative to control; assay type: functional; details: A498, 48 h, read-out: Activity
OVCAR-8 = experiment: Growth inhibition of human OVCAR8 cells assessed as cell growth at 1 uM incubated for 48 hrs by sulforhodamine B assay relative to control; assay type: functional; details: OVCAR-8, 48 h, read-out: Activity
OVCAR-5 [2] = experiment: Growth inhibition of human OVCAR5 cells assessed as cell growth at 0.01 uM incubated for 48 hrs by sulforhodamine B assay relative to control; assay type: functional; details: OVCAR-5, 48 h, read-out: Activity
NCI-H522 = experiment: Growth inhibition of human NCI-H522 cells assessed as cell growth at 100 uM incubated for 48 hrs by sulforhodamine B assay relative to control; assay type: functional; details: NCI-H522, 48 h, read-out: Activity
MOLT-4 = experiment: Growth inhibition of human MOLT4 cells assessed as cell growth at 0.01 uM incubated for 48 hrs by sulforhodamine B assay relative to control; assay type: functional; details: MOLT-4, 48 h, read-out: Activity
CCRF-CEM = experiment: Growth inhibition of human CCRF-CEM cells assessed as cell growth at 100 uM incubated for 48 hrs by sulforhodamine B assay relative to control; assay type: functional; details: read-out: Activity
SF-268 = experiment: Growth inhibition of human SF268 cells assessed as cell growth at 0.01 uM incubated for 48 hrs by sulforhodamine B assay relative to control; assay type: functional; details: SF-268, 48 h, read-out: Activity
RPMI-8226 = experiment: Growth inhibition of human RPMI8226 cells assessed as cell growth at 1 uM incubated for 48 hrs by sulforhodamine B assay relative to control; assay type: functional; details: RPMI-8226, 48 h, read-out: Activity
OVCAR-4 = experiment: Growth inhibition of human OVCAR4 cells assessed as cell growth at 1 uM incubated for 48 hrs by sulforhodamine B assay relative to control; assay type: functional; details: OVCAR-4, 48 h, read-out: Activity
UO-31 = experiment: Growth inhibition of human UO31 cells assessed as cell growth at 0.1 uM incubated for 48 hrs by sulforhodamine B assay relative to control; assay type: functional; details: UO-31, 48 h, read-out: Activity
PC-3 = experiment: Growth inhibition of human PC3 cells assessed as cell growth at 1 uM incubated for 48 hrs by sulforhodamine B assay relative to control; assay type: functional; details: PC-3, 48 h, read-out: Activity
SK-MEL-5 [3] = experiment: Growth inhibition of human SK-MEL-5 cells incubated for 48 hrs by sulforhodamine B assay; assay type: functional, cell-based; details: SK-MEL-5, 48 h
Malme-3M = experiment: Growth inhibition of human MALME-3M cells incubated for 48 hrs by sulforhodamine B assay; assay type: functional, cell-based
A498 [4] = experiment: Growth inhibition of human A498 cells assessed as cell growth at 1 uM incubated for 48 hrs by sulforhodamine B assay relative to control; assay type: functional; details: A498, 48 h, read-out: Activity
ACHN = experiment: Growth inhibition of human ACHN cells incubated for 48 hrs by sulforhodamine B assay; assay type: functional, cell-based
SK-MEL-5 [5] = experiment: Growth inhibition of human SK-MEL-5 cells assessed as cell growth at 1 uM incubated for 48 hrs by sulforhodamine B assay relative to control; assay type: functional; details: SK-MEL-5, 48 h, read-out: Activity
COLO 205 = experiment: Growth inhibition of human COLO205 cells incubated for 48 hrs by sulforhodamine B assay; assay type: functional, cell-based; details: COLO 205, 48 h
HCT-15 [6] = experiment: Growth inhibition of human HCT15 cells incubated for 48 hrs by sulforhodamine B assay; assay type: functional, cell-based; details: HCT-15, 48 h
SN12C [7] = experiment: Growth inhibition of human SN12C cells assessed as cell growth at 100 uM incubated for 48 hrs by sulforhodamine B assay relative to control; assay type: functional; details: read-out: Activity
SK-MEL-5 [8] = experiment: Growth inhibition of human SK-MEL-5 cells assessed as cell growth at 0.01 uM incubated for 48 hrs by sulforhodamine B assay relative to control; assay type: functional; details: SK-MEL-5, 48 h, read-out: Activity
NCI-H23 = experiment: Growth inhibition of human NCI-H23 cells assessed as cell growth at 1 uM incubated for 48 hrs by sulforhodamine B assay relative to control; assay type: functional; details: NCI-H23, 48 h, read-out: Activity
UACC-62 [9] = experiment: Growth inhibition of human UACC62 cells incubated for 48 hrs by sulforhodamine B assay; assay type: functional, cell-based; details: UACC-62, 48 h
UACC-62 [10] = experiment: Growth inhibition of human UACC62 cells assessed as cell growth at 0.1 uM incubated for 48 hrs by sulforhodamine B assay relative to control; assay type: functional; details: UACC-62, 48 h, read-out: Activity
OVCAR-5 [11] = experiment: Growth inhibition of human OVCAR5 cells assessed as cell growth at 100 uM incubated for 48 hrs by sulforhodamine B assay relative to control; assay type: functional; details: OVCAR-5, 48 h, read-out: Activity
SN12C [12] = experiment: Growth inhibition of human SN12C cells assessed as cell growth at 0.1 uM incubated for 48 hrs by sulforhodamine B assay relative to control; assay type: functional; details: read-out: Activity
MDA-MB-468 = experiment: Growth inhibition of human MDA-MB-468 cells assessed as cell growth at 100 uM incubated for 48 hrs by sulforhodamine B assay relative to control; assay type: functional; details: MDA-MB-468, 48 h, read-out: Activity
LOX IMVI = experiment: Growth inhibition of human LOXIMVI cells assessed as cell growth at 0.1 uM incubated for 48 hrs by sulforhodamine B assay relative to control; assay type: functional; details: read-out: Activity
HCT-15 [13] = experiment: Growth inhibition of human HCT15 cells assessed as cell growth at 1 uM incubated for 48 hrs by sulforhodamine B assay relative to control; assay type: functional; details: HCT-15, 48 h, read-out: Activity
M14 = experiment: Growth inhibition of human M14 cells assessed as cell growth at 1 uM incubated for 48 hrs by sulforhodamine B assay relative to control; assay type: functional; details: M14, 48 h, read-out: Activity
SK-MEL-5 [14] = experiment: Growth inhibition of human SK-MEL-5 cells assessed as cell growth at 0.1 uM incubated for 48 hrs by sulforhodamine B assay relative to control; assay type: functional; details: SK-MEL-5, 48 h, read-out: Activity
[15] = read-out: LC50 (the source's name)
[16] = read-out: pLC50 (the source's name) (converted)

SMILES: O=C(Nc1cccc(-n2cc(-c3ccncc3)c(-c3cc(O)cc(Cl)c3)n2)c1)c1ccc(N2CCOCC2)c(C(F)(F)F)c1
- growth at 0.1 µM (A498 [1]): 85%
- growth at 1 µM (OVCAR-8): 57%
- growth at 0.01 µM (OVCAR-5 [2]): 52%
- growth at 100 µM (NCI-H522): -20%
- growth at 0.01 µM (MOLT-4): 93%
- growth at 100 µM (CCRF-CEM): 2%
- growth at 0.01 µM (SF-268): 101%
- growth at 1 µM (RPMI-8226): 17%
- growth at 1 µM (OVCAR-4): 99%
- growth at 0.1 µM (UO-31): 95%
- growth at 1 µM (PC-3): 51%
- GI50 (SK-MEL-5 [3]; read-out: GI50): 2.33 µM
- CC50 (SK-MEL-5 [3]; [15]): 45.4 µM
- TGI (SK-MEL-5 [3]; read-out: TGI): 84.9 µM
- GI50 (SK-MEL-5 [3]; read-out: pGI50 (converted)): 2.34 µM
- CC50 (SK-MEL-5 [3]; [16]): 46.8 µM
- TGI (SK-MEL-5 [3]; read-out: pTGI (converted)): 8.51 µM
- GI50 (Malme-3M; read-out: GI50): 1.38 µM
- CC50 (Malme-3M; [15]): > 100 µM
- TGI (Malme-3M; read-out: TGI): 51.9 µM
- GI50 (Malme-3M; read-out: pGI50 (converted)): 1.38 µM
- CC50 (Malme-3M; [16]): > 100 µM
- TGI (Malme-3M; read-out: pTGI (converted)): 5.25 µM
- growth at 1 µM (A498 [4]): 98%
- GI50 (ACHN; read-out: GI50): 1.54 µM
- CC50 (ACHN; [15]): > 100 µM
- TGI (ACHN; read-out: TGI): 29.3 µM
- GI50 (ACHN; read-out: pGI50 (converted)): 1.82 µM
- CC50 (ACHN; [16]): > 100 µM
- TGI (ACHN; read-out: pTGI (converted)): 29.5 µM
- growth at 1 µM (SK-MEL-5 [5]): 52%
- GI50 (COLO 205; read-out: GI50): 1.75 µM
- CC50 (COLO 205; [15]): > 100 µM
- TGI (COLO 205; read-out: TGI): 64.5 µM
- GI50 (COLO 205; read-out: pGI50 (converted)): 17.4 µM
- CC50 (COLO 205; [16]): > 100 µM
- TGI (COLO 205; read-out: pTGI (converted)): 64.6 µM
- GI50 (HCT-15 [6]; read-out: GI50): 0.559 µM
- CC50 (HCT-15 [6]; [15]): 84.9 µM
- TGI (HCT-15 [6]; read-out: TGI): 11.3 µM
- GI50 (HCT-15 [6]; read-out: pGI50 (converted)): 0.562 µM
- CC50 (HCT-15 [6]; [16]): 85.1 µM
- TGI (HCT-15 [6]; read-out: pTGI (converted)): 11.2 µM
- growth at 100 µM (SN12C [7]): 38%
- growth at 0.01 µM (SK-MEL-5 [8]): 98%
- growth at 1 µM (NCI-H23): 92%
- IC50 (UACC-62 [9]): 1.72 µM
- GI50 (UACC-62 [9]; read-out: GI50): 1.72 µM
- CC50 (UACC-62 [9]; [15]): > 100 µM
- TGI (UACC-62 [9]; read-out: TGI): 93.8 µM
- GI50 (UACC-62 [9]; read-out: pGI50 (converted)): 1.74 µM
- CC50 (UACC-62 [9]; [16]): > 100 µM
- TGI (UACC-62 [9]; read-out: pTGI (converted)): 9.33 µM
- growth at 0.1 µM (UACC-62 [10]): 91%
- growth at 100 µM (OVCAR-5 [11]): -47%
- growth at 0.1 µM (SN12C [12]): 98%
- growth at 100 µM (MDA-MB-468): -15%
- growth at 0.1 µM (LOX IMVI): 102%
- growth at 1 µM (HCT-15 [13]): 35%
- growth at 1 µM (M14): 45%
- growth at 0.1 µM (SK-MEL-5 [14]): 91%
